Assay: gradient 5% acetonitrile 3 min, to 50% in 2 min, to 85% in 15 min, held 3 min, 100 µL/min
Settings: column: Zorbax Extend-C18 2.1 x 50 mm; eluents: water / acetonitrile, 0.1% formic acid
How it was run: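 Pure standards were analyzed in mixtures of ~100 molecules using HPLC coupled to a quadrupole time-of-flight mass spectrometer, in both positive and negative ionization mode. Separation used a Zorbax Extend-C18 column (2.1 × 50 mm, 1.8 μm) at 100 μL/min, with water and acetonitrile each containing 0.1% formic acid. Dead and dwell volumes were 40 μL and 900 μL, and data were collected over 3 months. Retention time was read from computationally picked adduct peaks, each inspected manually.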

Row | SMILES | RP-LC retention time [s]
1 | CCC(CC)C(=O)N1CCc2c(c(-c3nnc(-c4ccccc4Cl)o3)nn2C)C1 | 899
2 | COc1ccc(-n2ncc3c(=O)n(Cc4nc(-c5cccc(C)c5)no4)cnc32)cc1 | 1050
3 | COc1ccccc1NC(=O)Nc1c(-c2cccc(C)c2)nc2ccccn12 | 700
4 | CCOC(=O)CNC(=O)NC(C)C(=O)N1CCc2ccccc21 (stereo unspecified) | 687
5 | O=C(Cc1ccccc1)NCc1nc(-c2cccc(-c3csc(C4CC4)n3)c2)no1 | 1070
6 | Cc1cccc(NC(=O)Cn2c(C)nc3onc(C)c3c2=O)c1C | 861
7 | Cc1cnc(CC2CCN(S(=O)(=O)Cc3ccccc3)C2)n1C(C)C (stereo unspecified) | 663
8 | Cc1ccccc1Cn1c(CN2CCC(C(=O)N3CCCCCC3)CC2)cc2ccccc21 | 838
9 | COc1ccc(NC(=O)Cn2ccnc2-c2ccnc(N3CCCC3)c2)cc1OC | 573
10 | CN(C)CC1(O)CCC2(CCN(Cc3ccc(Cl)c(F)c3)CC2)CC1 | 658
11 | CCCCCCNc1nc(-c2ccc(OC)cc2)c(CCC(=O)O)s1 | 716
12 | CCOc1ccccc1NC(=O)C1CCCN1S(=O)(=O)c1cc2c(cc1Cl)NC(=O)CO2 (stereo unspecified) | 880
13 | O=S(=O)(Nc1ccc(Cl)cc1)c1c[nH]c2ncccc12 | 750
14 | COc1ccc(CNC(=O)c2nc3ccccn3c2-c2ccsc2)cc1 | 810
15 | Cc1ccc(-c2ccc(=O)n(Cc3nc(-c4ccc(OC(C)C)cc4)no3)n2)cc1 | 597
16 | CNC(=O)[C@@H]1C[C@H](Oc2cccnc2)CN1C(=O)C1CCC1 | 540
17 | CCOc1ccc2ccccc2c1C(=O)NCCc1ccsc1 | 872
18 | Cc1cccc(CNC(=O)c2sc(CC(=O)N3CCSCC3)nc2C)c1 | 798
19 | CCn1c(=O)c(N2CCN(C(=O)Nc3cccc(Br)c3)CC2)nc2cccnc21 | 1030
20 | O=C(C1CCCO1)N1CCC2(CC1)NCCc1c2[nH]c2ccccc12 (stereo unspecified) | 610
21 | Cc1c(-c2ccnc(N3CCN(Cc4ccccc4)CC3)n2)cnc2nc(-c3ccc(Cl)cc3)nn12 | 796
22 | COc1ccc(CNS(=O)(=O)c2cn(C(C)C)c3ncccc23)cc1 | 841

Row | SMILES | RP-LC retention time [s]
23 | CCCn1cc(C(=O)NCC(=O)OC)c(S(=O)(=O)N2CCN(c3ccccc3OCC)CC2)n1 | 969
24 | O=C(CSc1cc(-n2cccn2)ncn1)Nc1cccc(Cl)c1F | 965
25 | Cc1sc(-c2noc(C(C)C)n2)cc1S(=O)(=O)N1CCC(C(=O)NC2CCCCCC2)CC1 | 1140
26 | CCOc1ccc(Oc2cc3c(cc2NC(=O)COc2ccc(C)cc2)n(C)c(=O)c(=O)n3C)cc1 | 1030
27 | CN(C)[C@@H]1CN(C(=O)c2ccc(F)cc2Cl)C[C@H]1CO | 553
28 | Cc1cc(OCC(=O)Nc2nc(-c3ccccc3)cs2)ccc1Cl | 1180
29 | COc1cc2c3c(c1OC)-c1cc4c(cc1CC3(C#N)N(C(=O)c1ccccc1)CC2)OCO4 (stereo unspecified) | 987
30 | CC(=O)N1CCCc2cc(S(N)(=O)=O)ccc21 | 559
31 | CC(=O)NCCc1csc(C2CCN(C(=O)C3CCC3)CC2)n1 | 625
32 | Cc1noc([C@@H]2CN(C(=O)Cc3c(C)noc3C)C[C@H]2C(N)=O)n1 | 593
33 | CCOC(=O)c1c(C)c(S(=O)(=O)N2CCN(c3ccccn3)CC2)c(C)n1C | 690
34 | CCN(C(=O)Cc1ccccc1)c1nc(-c2ccc(C)cc2)cs1 | 1320
35 | CCOC(=O)c1[nH]c(C)c(C(=O)N(Cc2ccccc2)C(C)C)c1C | 860
36 | Fc1ccc(F)c(CN2CC(Oc3ccc(-c4noc(-c5ccncc5)n4)cc3)C2)c1 | 726
37 | O=C(NCc1nc(-c2cccc(-c3csc(C4CC4)n3)c2)no1)c1ccccc1 | 1030
38 | Fc1cccc(-c2noc(Cc3nnc(-c4ccc(Cl)cc4)o3)n2)c1 | 995
39 | CC(C)(C)c1ccc2c(c1)OCC(=O)N2Cc1nc(-c2ccc3c(c2)OCO3)no1 | 1200
40 | CCN1CCN(CC(=O)Nc2ccc(C(C)=O)cc2)C(=O)C1=O | 580
41 | COc1cccc(-c2noc(Cn3ccn4nc(-c5ccc(F)cc5)cc4c3=O)n2)c1OC | 1010
42 | CCN(Cc1ccccc1)C(=O)Cn1cccc1-c1nnc(-c2ccccc2)o1 | 1050
43 | O=C(CCC1CCCN(C(=O)Nc2ccccc2)C1)NCc1ccc(F)cc1F (stereo unspecified) | 816
44 | CC1(C(=O)NCc2ccc(Cl)cc2)CN(S(C)(=O)=O)CC(=O)N1Cc1ccccc1 (stereo unspecified) | 858

Row | SMILES | RP-LC retention time [s]
45 | O=C(NCCC1=CCCCC1)C(=O)Nc1cccc([N+](=O)[O-])c1 | 1030
46 | Cc1ccc(N2CCN(C(=O)CN3CCN(Cc4ccc(F)cc4)C3=O)CC2)cc1 | 837
47 | Cc1cccc(-c2csc3c(=O)n(CC(=O)OC(C)(C)C)cnc23)c1 | 1070
48 | O=C(CN1CCN(Cc2cccc(Cl)c2)C1=O)NC1CC1 | 683
49 | Fc1cccc(Cc2noc(-c3nc(-c4ccccc4F)no3)n2)c1 | 1130
50 | Cc1c(Cl)cccc1NC(=O)N1CCc2c(c(COc3ccccc3)nn2C)C1 | 891
51 | COc1ccc(C2C(C(=O)NCCN(C)C)c3cc(OC)c(OC)cc3C(=O)N2C)cc1OC (stereo unspecified) | 589
52 | CCCC(CCC)C(=O)NCc1nnnn1-c1ccc(OCC)cc1 | 882
53 | Cc1ccccc1N1CCN(c2ncnc3scc(-c4cccs4)c23)CC1 | 992
54 | CNC(=O)N1CCc2c(c(-c3nc(-c4ccc(F)cc4)no3)nn2C)C1 | 723
55 | COc1ccc(C(=O)N2CCN3CCS(=O)(=O)N(C4CC4)C(=O)C3C2)c(OC)c1 (stereo unspecified) | 711
56 | COc1ncc(C(=O)Nc2ccccc2)c(C)n1 | 698
57 | CC(NC(=O)c1ccccc1)c1nc(-c2ccc3c(c2)nnn3C)no1 (stereo unspecified) | 756
58 | Cc1ccc2nc(C(=O)NCc3cccc(Cl)c3)cn2c1 | 718
59 | O=C(NCc1cccs1)c1ccc2c(c1)CC(=O)N2Cc1ccc(F)cc1 | 840
60 | COc1cc2c(cc1OC)C1C(C(=O)NCc3ccc4c(c3)OCO4)c3ccccc3C(=O)N1CC2 (stereo unspecified) | 753
61 | Cc1nc(-c2csc(S(=O)(=O)N3CCCC(C(=O)Nc4ccc(Cl)cc4C)C3)c2)no1 (stereo unspecified) | 1040
62 | CC(C)c1nc2cc3c(cc2n1CC(=O)Nc1ccccc1)OCCO3 | 674
63 | COc1nccnc1N1CCC(N(C)C(=O)Cc2ccsc2)C1 (stereo unspecified) | 719
64 | Cc1ccc(CN2CCN(C3CCN(S(=O)(=O)c4ccc(F)c(F)c4)CC3)C(=O)C2=O)cc1 | 880
65 | Cc1[nH]c(=O)[nH]c(=O)c1CCc1nnc(SCC(=O)NCc2ccco2)o1 | 566
66 | COc1ccc(-c2noc(C3CCCN3C(=O)c3cc4ccccc4[nH]3)n2)cc1OC (stereo unspecified) | 971

From the METLIN SMRT retention time set (Domingo-Almenara et al. 2019)
